Legend:
[1] = test system: AAC model of heart failure; experiment: Cardiac blood vessel density (CD31 immunostaining) in AAC model; format: in vivo, mouse; settings: ldCil for 3 weeks
From the text: Male C57BL6 mice (Charles River) underwent AAC surgery at 4-5 weeks of age (between 20 and 22 g). Mice were anaesthetised with isoflurane, placed in a supine position on the procedure table, and an incision made along the ventral underbelly, extending from the xiphoid process of the sternum, down to the groin to reveal the abdominal muscle. The abdominal muscle was then cut the same distance along the linea alba to allow easy reattachment of the two halves. The two sides of the abdominal muscles were clipped back to reveal the abdominal gastrointestinal organs, and these were carefully manoeuvred to expose the underlying abdominal aorta. […] Hearts were halved longitudinally and either snap frozen in liquid nitrogen (for immunohistochemistry) or stored in an RNA later stabilisation solution (for RT-quantitative PCR) (ThermoFisher Scientific, Hertfordshire, UK).
For anti-CD31 (BD Bioscience) detection, 5 μm snap-frozen sections were blocked in 5% normal goat serum in PBS for 1 h, followed by incubation with anti-CD31 primary antibody (clone H-3, sc-376764, Santa Cruz, 1:100) in blocking buffer (5% normal goat serum in PBS) for 2 h at room temperature. […] To quantify cardiac blood vessel density, the number of CD31-positive blood vessels present across an entire area of abdominally-orientated cardiac tissue was counted within a field of view taken at 40× magnification. […]

[2] = test system: AngII-stimulated mouse cardiomyocytes; experiment: RNA-Seq of AngII-stimulated cardiomyocytes treated with ldCil, comparison with human heart data; format: cell-based
Protocol: Primary mouse cardiomyocytes were isolated from the whole hearts of 1-3-day old C57/BL6 wild-type mice. Hearts were dissected and removed from the thoracic cavity, mechanically minced with scissors and digested in cardiomyocyte isolation enzyme 1 (200 μl per heart) and cardiomyocyte isolation enzyme 2 (10 μl per heart) (Pierce primary cardiomyocyte isolation kit, Thermo Scientific). Digested hearts were then homogenised by gently pipetting up to 30 times with a 1 ml pipette, and the resulting single cell suspension added to complete DMEM solution (DMEM, 10% FBS, 1% Penicillin Streptomycin stock solution). After combination of all cell suspensions, the total number of viable cells were counted, and plated at approximately 1 million cells per single well of a 6 well plate. The following day, wells were washed with PBS (without calcium and magnesium), and complete cardiomyocyte growth medium added. Complete cardiomyocyte medium thereafter was replaced every other day.
Following 5 days culture at 37° C., 5% CO2, primary mouse cardiomyocytes were serum starved for 24 h in a 0.5 FBS-DMEM media. On day 6 cells were washed and refed with complete cardiomyocyte growth medium plus or minus 1 μM angiotensin II (Alfa Aesar), and this was repeated on day 7. In tandem to angiotensin II treatment, cells were either treated with vehicle or low dose Cilengitide (20 nM) (Bachem). On 8-day cardiomyocytes were lysed for RNA analysis.
Medium was removed and cells were washed 3 times in PBS. 350 μl RLT lysis buffer (Qiagen) (plus 1:100 beta-mercaptoethanol) was added to each well to disrupt and lyse the cells. Cell lysate samples were then combined with an equal volume of 70% ethanol, before RNA was extracted according to the manufacturer's instructions, before being stored at −80° C. until required. For whole hearts, less than 100 mg of tissue was lysed with 700 μl RLT lysis buffer (Qiagen) (supplemented 1:100 beta-mercaptoethanol) in a QIAshredder (Qiagen) for 10 min. Tissues were then processed as above with the RNeasy mini kit.
RNA-Seq was performed by Barts and the London Genome Centre on the Illumina NextSeq 500 platform, generating on average ˜15-17 million paired-end reads of 76 bp in length per sample. After quality check using FastQC, raw reads were mapped to the mouse genome (mm10, Genome Reference Consortium GRCm38) in the strand-specific mode using HISAT2 (65). Number of uniquely aligned reads (q>10) to the exonic region of each gene were counted using HTSeq (66) based on the GenCode annotation version M16 (Ensembl v91). Only genes that achieved at least one read count per million reads (cpm) in at least four samples (i.e., number of samples per group) were kept. Conditional quantile normalisation (cqn) was then performed accounting for gene length and GC content, and a log2 transformed reads per kilobase of transcript per million mapped reads RPKM expression matrix was subsequently generated. Differential expression analysis was performed using the ‘limma’ R package (67). Gene-set enrichment analysis (GSEA) was performed using the GSEA software (68) to identify dysregulated canonical pathways curated in the Molecular Signatures Database (MSigDB-C2-CP v6.2) (FDR q<0.1). RNA-Seq data have been deposited in Gene Expression Omnibus (GEO) under the accession number GSE127854.
The GSE57338 microarray dataset of a total of 313 individuals which included 95 ischemic patients, 82 dilated cardiomyopathy patients, and 136 individuals with non-failing hearts, was downloaded from GEO. Differential expression analysis was performed using the ‘limma’ R package comparing ischemic vs non-failing and dilated vs non-failing. GSEA was performed using the GSEA software (PMID:16199517) to identify the dysregulated canonical pathways as described above. The overlap of differentially expressed gene and pathways (p<0.05) was then examined in relation to the mouse cardiomyocyte data. […]

[3] = AngII vs AngII+ldCil, human failing vs non-failing
[4] = human idiopathic dilated cardiomyopathy vs non-failing
[5] = human ischemic heart vs non-failing

## CC(C)[C@H]1C(=O)N[C@@H](CCCN=C(N)N)C(=O)NCC(=O)N[C@@H](CC(=O)O)C(=O)N[C@H](Cc2ccccc2)C(=O)N1C [Cilengitide, c(f*VRGD)]
[1]; AAC surgery
  cardiac blood vessel density: significantly enhanced
[1]; SHAM surgery
  cardiac blood vessel density: no significant effect
[2]; 1 μM AngII plus ldCil 20 nM
  transcriptomic alterations induced by AngII: back to control treated cardiomyocyte levels
[2]; AngII plus ldCil
  PI3K and Akt signalling pathways downregulated by AngII: fold change restoration of both these pathways are most highly expressed
  TCA and oxidative stress pathways increased by AngII: restored
[2]; [3]
  downregulated genes concordant with human failing heart restored to non-failing human heart levels: 13 genes
  upregulated genes concordant with human failing heart restored to non-failing human heart levels: 8 genes
[2]; AngII+ldCil compared to control, FDR q>0.1
  AngII-induced differential expression of pathways (GSEA): no longer significant
[2]; [4]
  concordantly downregulated pathways restored to non-failing human heart profiles: 8 pathways
  concordantly upregulated pathways restored to non-failing human heart profiles: 4 pathways
[2]; [5]
  concordant downregulated pathways restored: 5 pathways
  concordant pathways restored: 6 pathways
  concordant upregulated pathways restored: 1 pathways
